Experimental data published in US20100063070A1, “COMBINATION FOR USE IN THE TREATMENT OF INFLAMMATORY DISORDERS” (priority 2006, published 2010).

Key:
[1] = system: zymosan-induced PMN leukocyte accumulation; assay: Zymosan-induced peritonitis in the mouse (PMN leukocytes in peritoneal lavage fluid); assay type: in vivo; conditions: NMRI mice; 5 hours after i.p. zymosan; pemirolast 0.5 mg i.p. with zymosan; atorvastatin sodium 0.35 mg 24 hours and 90 minutes before
Method: The atorvastatin injection was given 24 hours before zymosan was administered i.p. and the atorvastatin injection was given 90 minutes before zymosan was administered […]. Prior to injection, atorvastatin was dissolved at 1 mg/mL in sterile PBS using sonication and warming as needed. […] The number of polymorphonuclear (PMN) leukocytes per mL of lavage fluid was counted by light microscopy (using standard morphological criteria) following staining of nuclei with Tü's solution. Lavage fluid from non-inflamed peritoneal cavities from untreated animals provided baseline levels of PMN leukocytes.

[2] = system: human macrophage cell-line MonoMac-6 (MM6); assay: Inhibition of macrophage proliferation (WST-1 reagent); assay type: cell-based; conditions: 48 hours, n=5; for inhibition at 10 µM / inhibition at 30 µM / inhibition at 100 µM: Homo sapiens; for inhibition at 10 µM: MONO-MAC-6, 10 μM drug alone; for inhibition at 30 µM: MONO-MAC-6, 30 μM drug alone; for inhibition at 100 µM: MONO-MAC-6, 100 μM drug alone
Method: Cells from the human macrophage cell-line MonoMac-6 (MM6) (Ziegler-Heitbrock et al, Int. J. Cancer, 41, 456 (1988)) were cultured (37° C./5% CO2) in RPMI-1640 medium supplemented with 1 mM sodium pyruvate, 1× nonessential amino acids, 1-100 μg/mL insulin, 1 mM oxalacetic acid, 100 units/mL penicillin, 100 μg/mL streptomycin and 10% (v/v) fetal bovine serum. At the start of the experiment, MM6 cells were seeded in 96-well plates at a density of 1×10^5 cells/mL (100 μl per well). Proliferation of the MM6 cells was measured using the Cell Proliferation Reagent WST-1 (Roche Diagnostics Scandinavia AB, Bromma, Sweden) or by cell counting using a microscope. The WST-1 reagent is designed to be used for spectrophotometric quantification of e.g. cell growth in proliferation assays and was used according to the manufacturers' instructions. The wavelength for measuring absorbance was 450 nm and the absorbance of all untreated control cells exposed to the WST-1 reagent was between 1.0 and 2.5. Stock solutions of pemirolast (potassium salt; see Example 19 above) and rosuvastatin (sodium salt; see Example 19 above) were made in sterile saline.
Untreated MM6 cells increased from 1×10^5 cells/mL at the start of the experiment to 1.4×10^5±0.06×10^5 cells/mL and 2.3×10^5±0.10×10^5 cells/mL after 24 and 48 hours, respectively (mean values±sem, n=4 for each of the three time-points). The effects of pemirolast and/or rosuvastatin (added at the start of the experiments) on MM6 cell proliferation were studied 48 hours after start of the experiments using the WST-1 reagent described above.
The procedure described in Example 20 was repeated for atorvastatin (sodium salt; received as atorvastatin calcium as a gift from Biocon, Ltd., Bangalore, India and converted into sodium salt by firstly converting the calcium salt into the free acid by addition of aqueous hydrochloric acid and then, after isolation via extraction, adding one equivalent of aqueous NaOH).

[3] = system: bone marrow-derived cultured mouse mast cells (mMC); assay: Inhibition of mast cell interferon-γ formation (IgE-receptor cross-linking with TNP-BSA, Cytometric Bead Array); assay type: cell-based; conditions: for mean IFN-γ concentration in supernatants: mMC stimulated with TNP-BSA for 24 hours, n=2
Method: Bone marrow-derived cultured mouse mast cells (mMC) were obtained by culturing bone marrow cells from female C57BL/6 mice. The bone marrow cells (from mouse femurs flushed with PBS) were cultured (37° C./5% CO2) in 10% X-63 enriched conditioned RPMI 1640, supplemented with 10% heat-inactivated fetal bovine serum, 4 mM L-glutamine, 50 μM 2-mercaptoethanol, 1 mM sodium pyruvate, 0.1 mM non-essential amino acids, 10 mM Hepes, 100 units/mL penicillin and 100 μg/mL streptomycin. Development of mast cells was confirmed by toluidine blue staining. The experiments were performed after 6 to 8 weeks of culture. To activate the mMC through cross-linking of cell-surface IgE-receptors, the cultured mMC were initially sensitized for 90 minutes at 37° C. (5% CO2) with a monoclonal mouse anti-TNP IgE-antibody (IgE1-b4, ATCC, Rockville, Md., USA), used as a 15% hybridoma supernatant. Cells were then subjected to two washings with PBS and re-suspended in RPMI-1640 medium supplemented with 0.2% bovine serum albumin (BSA) before the cells (0.5 mL of medium with 1×10^6 cells per mL) were activated by addition of TNP-BSA (Biosearch Technologies, San Francisco, Calif.) with a coupling ratio of 9/1 (the final TNP-BSA concentration was 100 ng/mL). The incubation (37° C./5% CO2) with TNP-BSA was 24 hours. Before the incubation with TNP-BSA, some cells were treated/incubated (37° C./5% CO2) with the test drugs pemirolast (potassium salt purchased from American Custom Chemicals Corporation, San Diego, Calif., USA) and/or rosuvastatin (extracted and purified from commercially available Crestor® tablets and isolated as calcium salt as described in Bioorganic & Medicinal Chemistry, Vol. 5, No. 5, pp 437-444, 1997 by adding CaCl2) 30 minutes prior to addition of TNP-BSA (stock solutions of the drugs were made in sterile saline). For comparison, some experiments were performed without the drug treatments. After the incubations with TNP-BSA, the samples were centrifuged at 4° C. to spin down the cells and the supernatants analysed with regard to content of mouse IFN-γ using the BD™ Cytometric Bead Array (CBA) Mouse Inflammation Kit from BD Biosciences Pharmingen, San Diego, USA (the kit was used according to the manufacturer's instructions).

`CC(C)c1c(C(=O)Nc2ccccc2)c(-c2ccccc2)c(-c2ccc(F)cc2)n1CC[C@@H](O)C[C@@H](O)CC(=O)O` [atorvastatin] was tested, and the “reduction of zymosan-induced PMN leukocyte accumulation compared with untreated animals” value [1] was 25.9%, the inhibition at 10 µM [2] was 19.9% and the inhibition at 30 µM [2] was 27%. It also gave an inhibition at 100 µM [2] of 54.4%.

With `Cc1cccn2c(=O)c(-c3nnn[nH]3)cnc12` [pemirolast] the “mean IFN-γ concentration in supernatants” value ([3]; 3 μM drug alone) was 2.00 µg/mL, the “reduction of IFN-γ compared with the untreated cells” value ([3]; 30 μM drug alone, TNP-BSA 24 hours) was “about 3%” and the “mean IFN-γ concentration in supernatants” value ([3]; 30 μM drug alone) was 1.74 µg/mL. For the same molecule, the “reduction of zymosan-induced PMN leukocyte accumulation compared with untreated animals” value [1] was 10.1%, the “inhibition of MM6 proliferation” value ([2]; 10 μM drug alone) was “very similar to that of 100 μM of pemirolast” and the inhibition at 100 µM [2] was 9.4%.

For `CC(C)c1nc(N(C)S(C)(=O)=O)nc(-c2ccc(F)cc2)c1/C=C/[C@@H](O)C[C@@H](O)CC(=O)O` [rosuvastatin], the “mean IFN-γ concentration in supernatants” value ([3]; 3 μM drug alone) was 2.26 µg/mL, the “mean IFN-γ concentration in supernatants” value ([3]; 30 μM drug alone) was 1.88 µg/mL and the inhibition at 10 µM [2] was 16.6%. The inhibition at 30 µM [2] was 22.7% and the inhibition at 100 µM [2] was 66.9%.
